Key:
yeast [1] = assay: One-step fermentation of ground corn slurry with T. cingulata GA + R. pusillus AA blend, ethanol by HPLC; format: cell-based; conditions: for Ethanol yield: one-step fermentation
Procedure: All treatments were evaluated via mini-scale fermentations. 410 g of ground yellow dent corn (with an average particle size around 0.5 mm) was added to 590 g tap water. This mixture was supplemented with 3.0 mL 1 g/L penicillin and 1 g of urea. The pH of this slurry was adjusted to 4.5 with 40% H2SO4. Dry solid (DS) level was determined to be 35 wt. %. Approximately 5 g of this slurry was added to 20 mL vials. Each vial was dosed with the appropriate amount of enzyme dosage shown in Table 2 below followed by addition of 200 microL yeast propagate/5 g slurry. Actual enzyme dosages were based on the exact weight of corn slurry in each vial. Vials were incubated at 32° C. Nine replicate fermentations of each treatment were run. Three replicates were selected for 24 hours, 48 hours and 70 hours time point analysis. Vials were vortexed at 24, 48 and 70 hours and analyzed by HPLC. The HPLC preparation consisted of stopping the reaction by addition of 50 microL of 40% H2SO4, centrifuging, and filtering through a 0.45 micrometer filter. Samples were stored at 4 C until analysis. Agilent™ 1100 HPLC system coupled with RI detector was used to determine ethanol and oligosaccharides concentration. The separation column was aminex HPX-87H ion exclusion column (300 mm×7.8 mm) from BioRad™).
The experiment was carried out as described in Example 2, except that salicylic acid (SA) was replaced with acetyl salicylic acid (ASA). The treatment and enzyme dosing was described in table below.

[2] = system: Pichia stipitis (CBS6054); conditions: salicylic acid 5 mM, 30° C., pH 6, FIG. 9
RED STAR yeast [3] = assay: Conventional simultaneous saccharification fermentation (SSF) of liquefied corn mash, ethanol yield by weight loss and HPLC; format: cell-based; conditions: weight loss method, all the enzymes tested, FIGS. 1, 2 and 3
Procedure: Liquefied corn mash was used to evaluate the effect of adding salicylic acid (SA) to a known enzyme dosage of
The performance of these enzymes was compared to controls without salicylic acid addition. The experimental set-up used is described in table below.
5.5 g of RED STAR™ yeast was rehydrated in 100 mL distilled water and incubated at 32° C. for 30 minutes prior to the beginning of fermentation. Approximately 50 million cells/g DS of yeast were added to each of the fermentations.
The corn mash was thawed to room temperature. Urea and Penicillin were added to a final concentration of […] and 3 mg/L respectively. Small-scale (˜4 g) fermentations were carried out in 15 mL polypropylene tubes with five replicates for each experimental condition. The tubes were prepared by drilling a 1/32 inch (1.5 mm) hole and the empty tubes were then weighed before liquefied corn mash was added. The tubes were weighed again after mash was added to determine the exact weight of mash in each tube. This weight was used to calculate the enzyme dosage necessary as follows:
Enzyme was added according to dosage described in table above and 100 μl of rehydrated yeast were added to each tube to begin fermentation. Fermentation progress was followed by weighing the tubes over time for approximately 70 hours. Tubes were vortexed briefly before each weighing. […]

yeast [4] = assay: Yield boosting effect of salicylic acid on ethanol production from starch-containing material (conventional SSF), summary findings; format: cell-based
Excerpt: Further, the effect on yeast growth is 2-fold.

RED STAR yeast [5] = assay: Dose/response study of salicylic acid in conventional SSF; format: cell-based
Procedure: The experiment was carried out as described in Example 1, except that the following enzyme blends was used for all treatments: • 0.3 AGU Talaromyces emersonii glucoamylase/g DS; • 0.0025 mg Rhizomucor pusillus alpha-amylase/g DS; and • 0.0125 mg Trametes cingulata glucoamylase/g DS. All treatments and controls included 8 replicates. [table]

Which results are given for `O=C(O)c1ccccc1O` [SA, salicylic acid]?
Ethanol yield (yeast [1]; SA 1 mM (mM/g DS), 24 hours): 107.77; Ethanol yield (yeast [1]; SA 1 mM (mM/g DS), 48 hours): 144.61; Ethanol yield (yeast [1]; SA 1 mM (mM/g DS), 70 hours): 151.80; Ethanol yield (yeast [1]; SA 2.5 mM (mM/g DS), 24 hours): 107.53; Ethanol yield (yeast [1]; SA 2.5 mM (mM/g DS), 48 hours): 143.11; Ethanol yield (yeast [1]; SA 2.5 mM (mM/g DS), 70 hours): 150.80; Ethanol yield (yeast [1]; SA 5 mM (mM/g DS), 24 hours): 104.46; Ethanol yield (yeast [1]; SA 5 mM (mM/g DS), 48 hours): 137.21; Ethanol yield (yeast [1]; SA 5 mM (mM/g DS), 70 hours): 146.07; Ethanol yield (yeast [1]; SA 15 mM (mM/g DS), 24 hours): 75.03; Ethanol yield (yeast [1]; SA 15 mM (mM/g DS), 48 hours): 117.40; Ethanol yield (yeast [1]; SA 15 mM (mM/g DS), 70 hours): 126.40; Fermentation speed and final ethanol yield (yeast [1]; Trametes cingulata GA and Rhizomucor pusillus AA blend, FIG. 4): increases the fermentation speed and final ethanol yield; Ability of P. stipitis to tolerate the inhibitors in the unwashed biomass hydrolyzate [2]: improves the ability of P. stipitis to tolerate the inhibitors; Fermentation kinetic and final ethanol yield (RED STAR yeast [3]): increases the fermentation kinetic and also final ethanol yield; Residual glucose (yeast [4]; at high salicylic acid concentrations): increased; Effect on yeast growth (yeast [4]; at higher concentrations): reduce yeast growth; Effect on cell growth (yeast [4]; at lower concentration): positive effect on cell growth; Effective concentration range (yeast [4]; by HPLC): 1.25 to 2.5 mM; Maximum ethanol increase (yeast [4]; by HPLC): 1.3%; Effective concentration range (yeast [4]; by weight loss determination): 0.63 to 2.5 mM; Maximum ethanol increase (yeast [4]; by weight loss determination): 3.5%; Glycerol production (yeast [4]; with increasing salicylic acid concentration): decreased dramatically; Glycerol after 70 hours of fermentation (RED STAR yeast [5]; HPLC, as a function of SA dose, FIG. 8): consistently reduced the amount of the by-product glycerol; Fermentation kinetics and final ethanol yield (RED STAR yeast [5]; weight loss data, FIG. 6): increased the fermentation kinetics and final ethanol yield

What does the source list for `CC(=O)Oc1ccccc1C(=O)O` [ASA, acetyl salicylic acid, reference compound]?
Ethanol yield (yeast [1]; ASA 1 mM (mM/g DS), 24 hours): 108.19; Ethanol yield (yeast [1]; ASA 1 mM (mM/g DS), 48 hours): 153.37; Ethanol yield (yeast [1]; ASA 1 mM (mM/g DS), 70 hours): 160.39; Fermentation kinetic and final ethanol yield (yeast [1]; ASA 1.0 mM/g DS, FIG. 5): gave an increase in fermentation kinetic and also final ethanol yield
